Measured values as given in PubChem BioAssay AID2060620 (Molecular Pharmacology Branch, DTP, NCI, 2025).
Blank lines part the entries; values can stand above or below the compound they belong to.

Tested on: 328373-195-R-J1-PDC complex spheroids, viability % test/control
Assay: Anticancer human tumor 328373-195-R-J1-PDC patient-derived head and neck squamous carcinoma cell line growth inhibition [CLK]
Settings: for IC50: curve of first compound; for viability, T/C: stronger effect = lower value
Outline: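 Patient-derived tumor cells grown as complex spheroids with HUVEC endothelial cells and mesenchymal stem cells, treated with drug combinations. Concentrations descend in half-log steps from near clinical Cmax, or from 10 microM if Cmax unknown.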

[1] = second compound 0.0316 µM, first compound 0.0316 µM
[2] = second compound 0.0316 µM, first compound 0.1 µM
[3] = second compound 0.0316 µM, first compound 0.316 µM
[4] = second compound 0.0316 µM, first compound 1 µM
[5] = second compound 0.0316 µM, first compound 3.16 µM
[6] = second compound 0.0316 µM, first compound 10 µM
[7] = second compound 0.1 µM, first compound 0.0316 µM
[8] = second compound 0.1 µM, first compound 0.1 µM
[9] = second compound 0.1 µM, first compound 0.316 µM
[10] = second compound 0.1 µM, first compound 1 µM
[11] = second compound 0.1 µM, first compound 3.16 µM
[12] = second compound 0.1 µM, first compound 10 µM
[13] = second compound 0.316 µM, first compound 0.0316 µM
[14] = second compound 0.316 µM, first compound 0.1 µM
[15] = second compound 0.316 µM, first compound 0.316 µM
[16] = second compound 0.316 µM, first compound 1 µM
[17] = second compound 0.316 µM, first compound 3.16 µM
[18] = second compound 0.316 µM, first compound 10 µM
[19] = second compound 1 µM, first compound 0.0316 µM
[20] = second compound 1 µM, first compound 0.1 µM
[21] = second compound 1 µM, first compound 0.316 µM
[22] = second compound 1 µM, first compound 1 µM
[23] = second compound 1 µM, first compound 3.16 µM
[24] = second compound 1 µM, first compound 10 µM
[25] = second compound 3.16 µM, first compound 0.0316 µM
[26] = second compound 3.16 µM, first compound 0.1 µM
[27] = second compound 3.16 µM, first compound 0.316 µM
[28] = second compound 3.16 µM, first compound 1 µM
[29] = second compound 3.16 µM, first compound 3.16 µM
[30] = second compound 3.16 µM, first compound 10 µM
[31] = second compound 10 µM, first compound 0.0316 µM
[32] = second compound 10 µM, first compound 0.1 µM
[33] = second compound 10 µM, first compound 0.316 µM
[34] = second compound 10 µM, first compound 1 µM
[35] = second compound 10 µM, first compound 3.16 µM
[36] = second compound 10 µM, first compound 10 µM
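Note: spheroids exposed to the agents for 7 days.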

Structure (SMILES): C#Cc1c(F)ccc2cc(O)cc(-c3ncc4c(N5CC6CCC(C5)N6)nc(OCC56CCCN5CC(F)C6)nc4c3F)c12 (stereo not given) + CNC(=O)c1ccc(Nc2nc(OC3CCCC3)c3c(-c4ccc5nc(C)oc5c4)c[nH]c3n2)c(OC)c1
IC50 (second compound 0.0316 µM): 5140 nM
IC50 (second compound 0.1 µM): < 31.6 nM
IC50 (second compound 0.316 µM): < 31.6 nM
IC50 (second compound 1 µM): < 31.6 nM
IC50 (second compound 3.16 µM): < 31.6 nM
IC50 (second compound 10 µM): < 31.6 nM
viability, T/C [1]: 68.5%
viability, T/C [2]: 63.2%
viability, T/C [3]: 60.2%
viability, T/C [4]: 65%
viability, T/C [5]: 62.6%
viability, T/C [6]: 32.6%
viability, T/C [7]: 11.3%
viability, T/C [8]: 10.5%
viability, T/C [9]: 7.58%
viability, T/C [10]: 11.6%
viability, T/C [11]: 9.36%
viability, T/C [12]: 7.63%
viability, T/C [13]: 8.02%
viability, T/C [14]: 9.37%
viability, T/C [15]: 9.67%
viability, T/C [16]: 8.78%
viability, T/C [17]: 7.32%
viability, T/C [18]: 5.64%
viability, T/C [19]: 10%
viability, T/C [20]: 11.6%
viability, T/C [21]: 8.24%
viability, T/C [22]: 9.01%
viability, T/C [23]: 8.47%
viability, T/C [24]: 5.54%
viability, T/C [25]: 9.2%
viability, T/C [26]: 8.8%
viability, T/C [27]: 9.68%
viability, T/C [28]: 9.11%
viability, T/C [29]: 9.06%
viability, T/C [30]: 6.06%
viability, T/C [31]: 10.7%
viability, T/C [32]: 11.8%
viability, T/C [33]: 10.1%
viability, T/C [34]: 10.3%
viability, T/C [35]: 10.5%
viability, T/C [36]: 4.63%

Structure (SMILES): CC(CO)NC(=O)c1cc(-c2ccc(Cl)cc2)nn(-c2cnn(C)c2)c1=O (stereo not given) + CNC(=O)c1ccc(Nc2nc(OC3CCCC3)c3c(-c4ccc5nc(C)oc5c4)c[nH]c3n2)c(OC)c1
IC50 (second compound 0.0316 µM): > 10000 nM
IC50 (second compound 0.1 µM): < 31.6 nM
IC50 (second compound 0.316 µM): < 31.6 nM
IC50 (second compound 1 µM): < 31.6 nM
IC50 (second compound 3.16 µM): < 31.6 nM
IC50 (second compound 10 µM): < 31.6 nM
viability, T/C [1]: 76.2%
viability, T/C [2]: 80.8%
viability, T/C [3]: 73%
viability, T/C [4]: 90.8%
viability, T/C [5]: 73.6%
viability, T/C [6]: 62.9%
viability, T/C [7]: 16.1%
viability, T/C [8]: 12.2%
viability, T/C [9]: 11.9%
viability, T/C [10]: 14.1%
viability, T/C [11]: 16.1%
viability, T/C [12]: 12.8%
viability, T/C [13]: 10.9%
viability, T/C [14]: 10.5%
viability, T/C [15]: 11.2%
viability, T/C [16]: 11.8%
viability, T/C [17]: 11.4%
viability, T/C [18]: 12%
viability, T/C [19]: 8.66%
viability, T/C [20]: 9.73%
viability, T/C [21]: 9.96%
viability, T/C [22]: 10.2%
viability, T/C [23]: 9.14%
viability, T/C [24]: 8.61%
viability, T/C [25]: 13.6%
viability, T/C [26]: 10.9%
viability, T/C [27]: 8.97%
viability, T/C [28]: 10.1%
viability, T/C [29]: 12.7%
viability, T/C [30]: 10.7%
viability, T/C [31]: 12.9%
viability, T/C [32]: 9.53%
viability, T/C [33]: 11.4%
viability, T/C [34]: 12.1%
viability, T/C [35]: 13.2%
viability, T/C [36]: 11.7%

Structure (SMILES): CC(Nc1ccc2c(c1)OCCn1cc(N3C(=O)OCC3C(F)F)nc1-2)C(N)=O (stereo not given) + CNC(=O)c1ccc(Nc2nc(OC3CCCC3)c3c(-c4ccc5nc(C)oc5c4)c[nH]c3n2)c(OC)c1
IC50 (second compound 0.0316 µM): 5300 nM
IC50 (second compound 0.1 µM): < 31.6 nM
IC50 (second compound 0.316 µM): < 31.6 nM
IC50 (second compound 1 µM): < 31.6 nM
IC50 (second compound 3.16 µM): < 31.6 nM
IC50 (second compound 10 µM): < 31.6 nM
viability, T/C [1]: 64.5%
viability, T/C [2]: 63%
viability, T/C [3]: 56.1%
viability, T/C [4]: 61.7%
viability, T/C [5]: 57%
viability, T/C [6]: 41.6%
viability, T/C [7]: 12.4%
viability, T/C [8]: 12.9%
viability, T/C [9]: 11.3%
viability, T/C [10]: 13.8%
viability, T/C [11]: 10.4%
viability, T/C [12]: 10.2%
viability, T/C [13]: 10.3%
viability, T/C [14]: 11%
viability, T/C [15]: 12.6%
viability, T/C [16]: 9.39%
viability, T/C [17]: 9.16%
viability, T/C [18]: 11.8%
viability, T/C [19]: 12%
viability, T/C [20]: 10.1%
viability, T/C [21]: 9.86%
viability, T/C [22]: 10.9%
viability, T/C [23]: 10.3%
viability, T/C [24]: 10.2%
viability, T/C [25]: 11.7%
viability, T/C [26]: 11%
viability, T/C [27]: 11.4%
viability, T/C [28]: 8.89%
viability, T/C [29]: 13.5%
viability, T/C [30]: 8.5%
viability, T/C [31]: 11.8%
viability, T/C [32]: 11.6%
viability, T/C [33]: 10.7%
viability, T/C [34]: 11.9%
viability, T/C [35]: 13.7%
viability, T/C [36]: 11%

These reach a lower IC50 (second compound 0.0316 µM). Values come first.

IC50 (second compound 0.0316 µM): 1810 nM
IC50 (second compound 0.1 µM): < 31.6 nM
IC50 (second compound 0.316 µM): < 31.6 nM
IC50 (second compound 1 µM): < 31.6 nM
IC50 (second compound 3.16 µM): < 31.6 nM
IC50 (second compound 10 µM): < 31.6 nM
Structure (SMILES): C=C(F)C(=O)N1CCN(c2nc(OCC3CCCN3C)nc3c2CCN(c2cccc4cccc(Cl)c24)C3)CC1CC#N (stereo not given) + CNC(=O)c1ccc(Nc2nc(OC3CCCC3)c3c(-c4ccc5nc(C)oc5c4)c[nH]c3n2)c(OC)c1
viability, T/C [1]: 55%
viability, T/C [2]: 57.6%
viability, T/C [3]: 57%
viability, T/C [4]: 57.2%
viability, T/C [5]: 43.8%
viability, T/C [6]: 0.11%
viability, T/C [7]: 11.2%
viability, T/C [8]: 9.34%
viability, T/C [9]: 8.18%
viability, T/C [10]: 10.4%
viability, T/C [11]: 10.7%
viability, T/C [12]: 0.09%
viability, T/C [13]: 10.5%
viability, T/C [14]: 8.47%
viability, T/C [15]: 10.6%
viability, T/C [16]: 8.2%
viability, T/C [17]: 8.71%
viability, T/C [18]: 0.79%
viability, T/C [19]: 8.55%
viability, T/C [20]: 9.75%
viability, T/C [21]: 8.98%
viability, T/C [22]: 8.73%
viability, T/C [23]: 11.3%
viability, T/C [24]: 0.08%
viability, T/C [25]: 11.6%
viability, T/C [26]: 10%
viability, T/C [27]: 9.7%
viability, T/C [28]: 10.9%
viability, T/C [29]: 9.36%
viability, T/C [30]: 0.12%
viability, T/C [31]: 11.1%
viability, T/C [32]: 11.5%
viability, T/C [33]: 9.68%
viability, T/C [34]: 10.4%
viability, T/C [35]: 11.6%
viability, T/C [36]: 0.19%

IC50 (second compound 0.0316 µM): 141 nM
IC50 (second compound 0.1 µM): < 3.16 nM
IC50 (second compound 0.316 µM): < 3.16 nM
IC50 (second compound 1 µM): < 3.16 nM
IC50 (second compound 3.16 µM): < 3.16 nM
IC50 (second compound 10 µM): < 3.16 nM
Structure (SMILES): COc1c(OCCCN2CCOCC2)ccc2c3n(c(=NC(=O)c4cnc(N)nc4)nc12)CCN3 + CNC(=O)c1ccc(Nc2nc(OC3CCCC3)c3c(-c4ccc5nc(C)oc5c4)c[nH]c3n2)c(OC)c1
viability, T/C (second compound 0.0316 µM, first compound 0.00316 µM): 68.3%
viability, T/C (second compound 0.0316 µM, first compound 0.01 µM): 67.3%
viability, T/C [1]: 68.2%
viability, T/C [2]: 60.7%
viability, T/C [3]: 24.9%
viability, T/C [4]: 8.91%
viability, T/C (second compound 0.1 µM, first compound 0.00316 µM): 10.9%
viability, T/C (second compound 0.1 µM, first compound 0.01 µM): 12.2%
viability, T/C [7]: 11.8%
viability, T/C [8]: 12.3%
viability, T/C [9]: 7.7%
viability, T/C [10]: 6.41%
viability, T/C (second compound 0.316 µM, first compound 0.00316 µM): 10.6%
viability, T/C (second compound 0.316 µM, first compound 0.01 µM): 11.2%
viability, T/C [13]: 10%
viability, T/C [14]: 9.38%
viability, T/C [15]: 6.22%
viability, T/C [16]: 5.91%
viability, T/C (second compound 1 µM, first compound 0.00316 µM): 9.61%
viability, T/C (second compound 1 µM, first compound 0.01 µM): 10.8%
viability, T/C [19]: 10.5%
viability, T/C [20]: 9.83%
viability, T/C [21]: 7.75%
viability, T/C [22]: 4.65%
viability, T/C (second compound 3.16 µM, first compound 0.00316 µM): 9.58%
viability, T/C (second compound 3.16 µM, first compound 0.01 µM): 11.5%
viability, T/C [25]: 10.6%
viability, T/C [26]: 9.71%
viability, T/C [27]: 8.29%
viability, T/C [28]: 7.29%
viability, T/C (second compound 10 µM, first compound 0.00316 µM): 12.8%
viability, T/C (second compound 10 µM, first compound 0.01 µM): 11%
viability, T/C [31]: 13.6%
viability, T/C [32]: 11.9%
viability, T/C [33]: 8.72%
viability, T/C [34]: 5.52%
